In patent US8076487B2, “Pyridone derivative and herbicide” (Kumiai Chemical Industry Co., Ltd., priority 2006, dated 2011):

How the values were obtained:
Assay type in all cases: in vivo
[1] = tested on: barnyardgrass (Echinochloa crus-galli (L.) P. Beauv. var. crus-galli); assay: Test Example 2: herbicidal effect by soil application to upland field; settings: soil surface spray, upland field soil, 1,000 g active ingredient per hectare, 21st day after application
Protocol: (§1) [table] Test Example 2 Test on Herbicidal Effect by Soil Application to Upland field In a 80 cm2 plastic pot, field soil was filled. Seeds of barnyardgrass (Echinochloa crus-galli (L.) P. Beauv. var. crus-galli), green foxtail (Setaria viridis (L.) P. Beauv.), velvetleaf (Abutilon theophrasti medicus), and slender amaranth (Amaranthus viridis L.) were sown and covered with soils. The wettable powder prepared according to Formulation Example 1 was diluted in water and a 1,000 liter equivalent amount per 1 hectare so that the active ingredient becomes 1,000 g per 1 hectare was uniformly sprayed on a soil surface using a small sprayer. Then, on the 21st day after the application to the plants grew in a greenhouse, the herbicidal effect was examined in accordance with a standard shown in Table 34.

[2] = tested on: slender amaranth (Amaranthus viridis L.); assay: as above; settings: soil surface spray, upland field soil, 1,000 g active ingredient per hectare, 21st day after application
Protocol: as §1

[3] = tested on: velvetleaf (Abutilon theophrasti medicus); assay: as above; settings: soil surface spray, upland field soil, 1,000 g active ingredient per hectare, 21st day after application
Protocol: as §1

[4] = tested on: green foxtail (Setaria viridis (L.) P. Beauv.); assay: as above; settings: soil surface spray, upland field soil, 1,000 g active ingredient per hectare, 21st day after application
Protocol: as §1

[5] = tested on: heartshape false pickerelweed (Monochoria vaginalis (Burm.f.) C.Presl); assay: Test Example 1: herbicidal effect by soil application to paddy field; settings: paddy field soil application; active ingredient 1,000 g per 1 hectare; wettable powder added dropwise to water surface the day after sowing; examined on the 21st day after application
Procedure, shortened: (§2)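 Plants were sown in flooded (3 cm) paddy soil and evaluated for herbicidal effect 21 days after soil application in a greenhouse.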

[6] = tested on: early watergrass (Echinochloa oryzicola Vasing); assay: as above; settings: paddy field soil application; active ingredient 1,000 g per 1 hectare; wettable powder added dropwise to water surface the day after sowing; examined on the 21st day after application
Procedure, shortened: as §2

[7] = tested on: Japanese bulrush (Scirpus juncoides Roxb.); assay: as above; settings: paddy field soil application; active ingredient 1,000 g per 1 hectare; wettable powder added dropwise to water surface the day after sowing; examined on the 21st day after application
Procedure, shortened: as §2

[8] = tested on: barnyardgrass (Echinochloa crus-galli (L.) P. Beauv. var. crus-galli); assay: Test Example 3: herbicidal effect by application to upland field (foliage treatment); settings: foliage treatment, 1,000 g active ingredient per 1 hectare, 14th day after application, greenhouse
Procedure, shortened: (§3)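 Upland foliage test in greenhouse pots of field soil: seedlings sprayed at two weeks post-sowing with 1,000 g/ha active ingredient (wettable powder, 1,000 L water/ha). Scored 14 d after application.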

[9] = tested on: slender amaranth (Amaranthus viridis L.); assay: as above; settings: foliage treatment, 1,000 g active ingredient per 1 hectare, 14th day after application, greenhouse
Procedure, shortened: as §3

[10] = tested on: velvetleaf (Abutilon theophrasti medicus); assay: as above; settings: foliage treatment, 1,000 g active ingredient per 1 hectare, 14th day after application, greenhouse
Procedure, shortened: as §3

[11] = tested on: green foxtail (Setaria viridis (L.) P. Beauv.); assay: as above; settings: foliage treatment, 1,000 g active ingredient per 1 hectare, 14th day after application, greenhouse
Procedure, shortened: as §3

Compound | herbicidal effect (index), Barnyardgrass [1] | herbicidal effect (index), Slender Amaranth [2] | herbicidal effect (index), Velvetleaf [3] | herbicidal effect (index), Green Foxtail [4] | herbicidal effect, Monochoria vaginalis (Burm. f.) C. Presl [5] | herbicidal effect, Echinochloa oryzicola Vasing [6] | herbicidal effect, Scirpus juncoides Roxb. [7] | herbicidal effect, Barnyardgrass [8] | herbicidal effect, Slender Amaranth [9] | herbicidal effect, Velvetleaf [10] | herbicidal effect, Green Foxtail [11]
CC(C)(C)c1ccc(-n2c(C(F)(F)F)ccc(C(=O)C3=C(O)CCCC3=O)c2=O)cc1 [I-96] | 5 (90% or more of herbicidal effect and crop phytotoxicity) | 3 (50 to less than 70% of herbicidal effect and crop phytotoxicity) | 5 (90% or more of herbicidal effect and crop phytotoxicity) | 5 (90% or more of herbicidal effect and crop phytotoxicity) | 5 (90% or more of herbicidal effect and crop phytotoxicity) | 5 (90% or more of herbicidal effect and crop phytotoxicity) | 5 (90% or more of herbicidal effect and crop phytotoxicity) | – | – | – | –
CCCS(=O)(=O)Oc1c(C(=O)c2ccc(C(F)(F)F)n(CCC=C(Cl)Cl)c2=O)cnn1C [IV-31] | 4 (70 to less than 90% of herbicidal effect and crop phytotoxicity) | 5 (90% or more of herbicidal effect and crop phytotoxicity) | 4 (70 to less than 90% of herbicidal effect and crop phytotoxicity) | 3 (50 to less than 70% of herbicidal effect and crop phytotoxicity) | – | – | – | – | – | – | –
Cn1ncc(C(=O)c2ccc(C(F)(F)F)n(Cc3c(C(F)(F)F)nn(C)c3OC(F)F)c2=O)c1O [IV-108] | – | – | – | – | 4 (70 to less than 90% of herbicidal effect and crop phytotoxicity) | 5 (90% or more of herbicidal effect and crop phytotoxicity) | 5 (90% or more of herbicidal effect and crop phytotoxicity) | 4 (70 to less than 90% of herbicidal effect and crop phytotoxicity) | 4 (70 to less than 90% of herbicidal effect and crop phytotoxicity) | 5 (90% or more of herbicidal effect and crop phytotoxicity) | 4 (70 to less than 90% of herbicidal effect and crop phytotoxicity)
Cn1ncc(C(=O)c2ccc(C(F)(F)F)n(CC3CCCO3)c2=O)c1OCc1c(F)cccc1F (stereo not drawn) [IV-136] | – | – | – | – | 5 (90% or more of herbicidal effect and crop phytotoxicity) | 5 (90% or more of herbicidal effect and crop phytotoxicity) | 5 (90% or more of herbicidal effect and crop phytotoxicity) | 4 (70 to less than 90% of herbicidal effect and crop phytotoxicity) | 5 (90% or more of herbicidal effect and crop phytotoxicity) | 4 (70 to less than 90% of herbicidal effect and crop phytotoxicity) | 4 (70 to less than 90% of herbicidal effect and crop phytotoxicity)
Cc1ccc(C(=O)COc2c(C(=O)c3ccc(C(F)(F)F)n(CC4CCCO4)c3=O)cnn2C)cc1 (stereo not drawn) [IV-139] | – | – | – | – | 5 (90% or more of herbicidal effect and crop phytotoxicity) | 5 (90% or more of herbicidal effect and crop phytotoxicity) | 5 (90% or more of herbicidal effect and crop phytotoxicity) | 5 (90% or more of herbicidal effect and crop phytotoxicity) | 5 (90% or more of herbicidal effect and crop phytotoxicity) | 5 (90% or more of herbicidal effect and crop phytotoxicity) | 4 (70 to less than 90% of herbicidal effect and crop phytotoxicity)
Cn1ncc(C(=O)c2ccc(C(F)(F)F)n(CC3CCCO3)c2=O)c1OS(=O)(=O)c1ccc([N+](=O)[O-])cc1 (stereo not drawn) [IV-142] | – | – | – | – | 5 (90% or more of herbicidal effect and crop phytotoxicity) | 5 (90% or more of herbicidal effect and crop phytotoxicity) | 5 (90% or more of herbicidal effect and crop phytotoxicity) | 5 (90% or more of herbicidal effect and crop phytotoxicity) | 5 (90% or more of herbicidal effect and crop phytotoxicity) | 5 (90% or more of herbicidal effect and crop phytotoxicity) | 5 (90% or more of herbicidal effect and crop phytotoxicity)
C=C(C)Cn1c(C(F)(F)F)ccc(C(=O)c2cnn(C)c2OC(C)=O)c1=O [IV-180] | – | – | – | – | 5 (90% or more of herbicidal effect and crop phytotoxicity) | 5 (90% or more of herbicidal effect and crop phytotoxicity) | 5 (90% or more of herbicidal effect and crop phytotoxicity) | 5 (90% or more of herbicidal effect and crop phytotoxicity) | 5 (90% or more of herbicidal effect and crop phytotoxicity) | 5 (90% or more of herbicidal effect and crop phytotoxicity) | 4 (70 to less than 90% of herbicidal effect and crop phytotoxicity)
COc1ccccc1COc1c(C(=O)c2ccc(C(F)(F)F)n(C)c2=O)cnn1C [IV-193] | – | – | – | – | 5 (90% or more of herbicidal effect and crop phytotoxicity) | 5 (90% or more of herbicidal effect and crop phytotoxicity) | 5 (90% or more of herbicidal effect and crop phytotoxicity) | 3 (50 to less than 70% of herbicidal effect and crop phytotoxicity) | 5 (90% or more of herbicidal effect and crop phytotoxicity) | 5 (90% or more of herbicidal effect and crop phytotoxicity) | 4 (70 to less than 90% of herbicidal effect and crop phytotoxicity)
CCn1ncc(C(=O)c2ccc(C(F)(F)F)n(C)c2=O)c1OC(C)=O [IV-208] | – | – | – | – | 5 (90% or more of herbicidal effect and crop phytotoxicity) | 5 (90% or more of herbicidal effect and crop phytotoxicity) | 5 (90% or more of herbicidal effect and crop phytotoxicity) | 5 (90% or more of herbicidal effect and crop phytotoxicity) | 5 (90% or more of herbicidal effect and crop phytotoxicity) | 5 (90% or more of herbicidal effect and crop phytotoxicity) | 4 (70 to less than 90% of herbicidal effect and crop phytotoxicity)
CC(=O)Oc1c(C(=O)c2ccc(C(F)(F)F)n(C)c2=O)cnn1C(C)C [IV-220] | – | – | – | – | 5 (90% or more of herbicidal effect and crop phytotoxicity) | 5 (90% or more of herbicidal effect and crop phytotoxicity) | 5 (90% or more of herbicidal effect and crop phytotoxicity) | 4 (70 to less than 90% of herbicidal effect and crop phytotoxicity) | 5 (90% or more of herbicidal effect and crop phytotoxicity) | 5 (90% or more of herbicidal effect and crop phytotoxicity) | 3 (50 to less than 70% of herbicidal effect and crop phytotoxicity)
Cc1nn(C)c(O)c1C(=O)c1ccc(C(F)(F)F)n(C)c1=O [IV-231] | – | – | – | – | 5 (90% or more of herbicidal effect and crop phytotoxicity) | 5 (90% or more of herbicidal effect and crop phytotoxicity) | 5 (90% or more of herbicidal effect and crop phytotoxicity) | 3 (50 to less than 70% of herbicidal effect and crop phytotoxicity) | 5 (90% or more of herbicidal effect and crop phytotoxicity) | 5 (90% or more of herbicidal effect and crop phytotoxicity) | 5 (90% or more of herbicidal effect and crop phytotoxicity)
N#CC(C(=O)c1ccc(C(F)(F)F)n(CC(F)(F)F)c1=O)=C(O)C1CC1 [V-22] | 4 (70 to less than 90% of herbicidal effect and crop phytotoxicity) | 5 (90% or more of herbicidal effect and crop phytotoxicity) | 5 (90% or more of herbicidal effect and crop phytotoxicity) | 4 (70 to less than 90% of herbicidal effect and crop phytotoxicity) | – | – | – | – | – | – | –
